Source: US4868204A, “Mycalamide compounds, compositions thereof and methods of preparation and use” (Harbor Branch Oceanographic Institution, Inc., priority 1988, dated 1989)
Like-named read-outs stand apart in the source and are kept apart here.

What was measured:
P388 mouse leukemia cell = assay: in vitro P388 mouse leukemia cell assay; type: cell-based; settings: 50% inhibition of cell replication vs untreated cultures
Experimental: Antitumor effectiveness of the compounds of the invention was evaluated using a standardized in vitro P388 mouse leukemia cell assay protocol disclosed in U.S. Pat. No. 4,731,366 with the antitumor activity being expressed in IC50 (concentration that results in 50% inhibition of cell replication normalized to untreated cultures) determined with a log-log transform of data and expressed as xx ng/ml. As an example, for mycalamide A the P388 assay value was […]

P338 tumor = assay: in vivo P388 tumor procedure in mice (% T/C)
Experimental: (§1) Antitumor effectiveness of mycalamide A was also evaluated using a standardized in vivo procedure by injecting mice with the test material starting 24 hours after P338 tumor implantation. A T/C value is calculated using the formula % T/C=Median survival of test group/Median survival of control group×100%, A T/C value above 130% is considered significant.

B16 murine melanoma = assay: in vivo B16 murine melanoma assay
Experimental: as §1
In vivo antitumor activity of mycalamide A was also tested with an B16 murine melanoma assay resulting in the following data: […]

A59 = test system: A59; design: species or system mice; settings: mouse, in vivo, 0.1 mg/kg
mice = settings: mouse, in vivo

Question: Which “P388 IC50” value (P388 mouse leukemia cell) does the source give for `C=C1C[C@](OC)([C@H](O)C(=O)N[C@H]2OCO[C@H]3[C@@H]2O[C@H](C[C@H](O)CO)C(C)(C)[C@@H]3OC)O[C@H](C)[C@@H]1C` [mycalamide A, Mycalamide A] here?
Answer: 1.6 ng/mL

Question: What about the “Median T/C %” value (P338 tumor; 0.0012 mg/kg, 2nd series) of the same compound?
Answer: 117%

Question: What about the “Median T/C %” value (P338 tumor; 0.0025 mg/kg, 1st series) of the same compound?
Answer: 137%

Question: And the “Median T/C %” value (P338 tumor; 0.0025 mg/kg, 2nd series)?
Answer: 122%

Question: What about the “Median T/C %” value (P338 tumor; 0.005 mg/kg, 1st series) of the same compound?
Answer: 132%

Question: And the “Median T/C %” value (P338 tumor; 0.005 mg/kg, 2nd series)?
Answer: 133%

Question: And the “Median T/C %” value (P338 tumor; 0.01 mg/kg, 1st series)?
Answer: 116%

Question: And the “Median T/C %” value (P338 tumor; 0.01 mg/kg, 2nd series)?
Answer: 156%

Question: What about the “Median T/C %” value (P338 tumor; 0.02 mg/kg, 1st series) of the same compound?
Answer: Toxic

Question: And the “Median T/C %” value (P338 tumor; 0.02 mg/kg, 2nd series)?
Answer: 106%

Question: What about the Cures (B16 murine melanoma; 0.0625 mg/kg) of the same compound?
Answer: 0

Question: What about the “Median T/C %” value (B16 murine melanoma; 0.0625 mg/kg) of the same compound?
Answer: 197%

Question: And the Cures (B16 murine melanoma; 0.125 mg/kg)?
Answer: 0

Question: And the “Median T/C %” value (B16 murine melanoma; 0.125 mg/kg)?
Answer: 189%

Question: What about the Cures (B16 murine melanoma; 0.5 mg/kg) of the same compound?
Answer: 0

Question: What about the “Median T/C %” value (B16 murine melanoma; 0.5 mg/kg) of the same compound?
Answer: Toxic

Question: What about the Cumulative mortality (A59) of the same compound?
Answer: 0%

Question: What about the Cumulative mortality (mice; 0.01 mg/kg, 48 h) of the same compound?
Answer: 0%

Question: What about the Cumulative mortality (mice; 0.01 mg/kg, 96 h) of the same compound?
Answer: 0%

Question: And the Cumulative mortality (mice; 0.01 mg/kg, 144 h)?
Answer: 0%

Question: And the Cumulative mortality (mice; 0.01 mg/kg, 192 h)?
Answer: 0%

Question: What about the Cumulative mortality (mice; 0.01 mg/kg, 240 h) of the same compound?
Answer: 0%

Question: And the Cumulative mortality (mice; 0.01 mg/kg, 288 h)?
Answer: 0%

Question: What about the Cumulative mortality (mice; 0.01 mg/kg, 336 h) of the same compound?
Answer: 0%

Question: And the Cumulative mortality (mice; 0.1 mg/kg, 48 h)?
Answer: 0%

Question: What about the Cumulative mortality (mice; 0.1 mg/kg, 96 h) of the same compound?
Answer: 0%

Question: What about the Cumulative mortality (mice; 0.1 mg/kg, 144 h) of the same compound?
Answer: 0%

Question: And the Cumulative mortality (mice; 0.1 mg/kg, 192 h)?
Answer: 0%

Question: What about the Cumulative mortality (mice; 0.1 mg/kg, 240 h) of the same compound?
Answer: 0%

Question: And the Cumulative mortality (mice; 0.1 mg/kg, 288 h)?
Answer: 0%

Question: And the Cumulative mortality (mice; 0.1 mg/kg, 336 h)?
Answer: 0%

Question: What about the Cumulative mortality (mice; 1 mg/kg, 48 h) of the same compound?
Answer: 0%

Question: What about the Cumulative mortality (mice; 1 mg/kg, 96 h) of the same compound?
Answer: 0%

Question: And the Cumulative mortality (mice; 1 mg/kg, 144 h)?
Answer: 100%

Question: And the Cumulative mortality (mice; 1 mg/kg, 192 h)?
Answer: 100%

Question: What about the Cumulative mortality (mice; 1 mg/kg, 240 h) of the same compound?
Answer: 100%

Question: And the Cumulative mortality (mice; 1 mg/kg, 288 h)?
Answer: 100%

Question: And the Cumulative mortality (mice; 1 mg/kg, 336 h)?
Answer: 100%
